Assay results from PMC5748833, “Synthesis and Biological Evaluation of Novel Hybrid Molecules Containing Purine, Coumarin and Isoxazoline or Isoxazole Moieties” (The Open Medicinal Chemistry Journal, 2017).

Key:
[1] = molecular target: T1, electric eel acetylcholinesterase (eeAChE) (Electrophorus electricus, UniProt O42275); assay: biochemical; type: biochemical; details: read-out: eeAChE IC50 μΜ
T1 construct: purchased Sigma
Source text: (§1) 2.2.2.5 Inhibition Study on ChEs in vitro
(§2) In vitro inhibition of electric eel acetylcholinesterase (eeAChE; 463 U/mg, Sigma) and equine serum butyrylcholinesterase (esBChE; 13 U/mg, Sigma) was investigated with a 96-well plate procedure based on the classical Ellman’s spectrophotometric test, as already described.

[2] = molecular target: T2, soybean lipoxygenase (Glycine max, UniProt P08170); assay: Soybean lipoxygenase inhibition in vitro; type: biochemical; details: for IC50: read-out: LOX IC50 μΜ
T2 construct: purchased Sigma Chemical, Co. (St. Louis, MO, USA)
T2 sequence (P08170 1-839): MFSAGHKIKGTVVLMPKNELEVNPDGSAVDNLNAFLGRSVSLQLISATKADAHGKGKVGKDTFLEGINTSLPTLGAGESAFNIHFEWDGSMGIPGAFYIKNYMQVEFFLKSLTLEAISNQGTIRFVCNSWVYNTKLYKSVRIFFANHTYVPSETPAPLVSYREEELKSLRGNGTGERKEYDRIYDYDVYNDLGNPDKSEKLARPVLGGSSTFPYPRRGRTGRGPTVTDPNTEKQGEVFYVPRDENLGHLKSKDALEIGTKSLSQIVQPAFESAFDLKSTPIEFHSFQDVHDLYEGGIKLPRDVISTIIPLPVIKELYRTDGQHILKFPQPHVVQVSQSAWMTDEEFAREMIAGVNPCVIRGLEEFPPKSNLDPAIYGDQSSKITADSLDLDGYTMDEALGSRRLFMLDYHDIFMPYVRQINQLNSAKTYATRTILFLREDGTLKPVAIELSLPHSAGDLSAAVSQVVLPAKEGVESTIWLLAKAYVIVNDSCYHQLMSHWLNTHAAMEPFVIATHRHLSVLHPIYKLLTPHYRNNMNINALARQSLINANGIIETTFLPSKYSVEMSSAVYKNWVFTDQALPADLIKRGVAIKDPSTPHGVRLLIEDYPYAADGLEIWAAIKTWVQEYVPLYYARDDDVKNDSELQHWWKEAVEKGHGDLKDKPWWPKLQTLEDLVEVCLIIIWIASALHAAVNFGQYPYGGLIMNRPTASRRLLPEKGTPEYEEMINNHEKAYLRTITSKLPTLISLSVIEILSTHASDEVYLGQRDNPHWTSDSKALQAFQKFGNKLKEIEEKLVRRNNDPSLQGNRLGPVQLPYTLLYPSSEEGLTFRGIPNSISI
Description: 2.2.2.4 Soybean lipoxygenase inhibition study in vitro [14]
In vitro study was evaluated as reported previously. The tested compounds dissolved in ethanol were incubated at room temperature with sodium linoleate (0.1 mM) and 0.2 ml of enzyme solution (1/9 x10^-4 w/v in saline). […] Several concentrations were used for the determination of IC50 values (Table 5).
LO is the key enzyme in leukotriene biosynthesis. Leukotrienes derived from the biotransformation of arachidonic acid catalyzed by 5-lipoxygenase (5-LO), are important inflammatory mediators implicated in several diseases. LOs play a role in membrane lipid peroxidation by forming hydroperoxides in the lipid bilayer. […] Most of the LO inhibitors are antioxidants or free radical scavengers, since lipoxygenation occurs via a carbon-centered radical. The evaluation of the novel coumarin hybrids against soybean lipoxygenase LO was accomplished by the UV-based enzyme assay.

[3] = molecular target: T3, equine serum butyrylcholinesterase (esBChE) (Equus caballus, UniProt P81908); assay: Inhibition of esBChE (Ellman's test); type: biochemical; details: read-out: esBChE % inhibn. @ 10 μΜ
T3 construct: purchased Sigma; host or cells: equine serum
Source text: as §1, §2

[4] = molecular target: T4, rat monoamine oxidase B (Rattus norvegicus, UniProt P19643); assay: Inhibition of MAO-B (spectrofluorimetric method); type: biochemical; details: 10 μM compound
T4 construct: from tissue
T4 sequence (P19643 1-520): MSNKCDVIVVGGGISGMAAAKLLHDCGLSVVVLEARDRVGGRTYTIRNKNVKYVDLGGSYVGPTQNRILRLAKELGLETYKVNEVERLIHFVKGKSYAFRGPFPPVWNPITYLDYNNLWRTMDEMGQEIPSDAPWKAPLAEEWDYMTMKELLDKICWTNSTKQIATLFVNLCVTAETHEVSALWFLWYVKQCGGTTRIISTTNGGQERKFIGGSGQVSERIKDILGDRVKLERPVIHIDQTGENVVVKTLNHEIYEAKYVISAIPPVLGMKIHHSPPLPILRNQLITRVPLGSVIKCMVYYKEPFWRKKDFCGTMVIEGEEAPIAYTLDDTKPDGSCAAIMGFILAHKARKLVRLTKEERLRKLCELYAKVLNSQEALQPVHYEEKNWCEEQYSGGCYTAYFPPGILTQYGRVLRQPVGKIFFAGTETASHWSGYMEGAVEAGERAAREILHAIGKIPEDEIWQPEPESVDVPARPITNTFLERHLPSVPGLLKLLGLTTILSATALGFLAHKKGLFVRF
Source text: (§3) 2.2.2.6 Inhibition Study on MAOs in vitro
(§4) Inhibition of rat monoamine oxidase A and B was studied by means of a spectrofluorimetric method as previously detailed.

[5] = Inhibition of linoleic acid lipid peroxidation (AAPH); details: 100 μM compound, 37°C
Description: 2.2.2.3 Inhibition of linoleic acid lipid peroxidation
Production of conjugated diene hydroperoxide by oxidation of linoleic acid sodium salt in an aqueous solution was monitored at 234 nm. 2,2’-Azobis(2-amidinopropane) dihydrochloride (AAPH) was used as a free radical initiator. 10 μl of the 16 mM linoleic acid sodium salt solution was added to the UV cuvette containing 0.93 ml of 0.05 M phosphate buffer, pH 7.4 prethermostated at 37°C. The oxidation reaction was initiated at 37°C under air by the addition of 50 μl of 40 mM AAPH solution. Oxidation was carried out in the presence of 10 μl of the examined compounds (stock solution in DMSO). In the assay without antioxidant, lipid oxidation was measured in the presence of the same level of DMSO. The rate of oxidation at 37°C was monitored by recording the increase in absorption at 234 nm caused by conjugated diene hydroperoxides (Table 5). Trolox was used as a standard.
Anti-lipid peroxidation activity. The water-soluble azo compound AAPH has been extensively used as a clean and controllable source of thermally produced alkyl peroxyl free radicals, through spontaneous thermal decomposition. […] In the AAPH assay, the highly reactive alkylperoxyl radicals are intercepted mainly by a hydrogen atom transfer (HAT) from the antioxidant.

[6] = molecular target: T5, rat monoamine oxidase A (Rattus norvegicus, UniProt P21396); assay: Inhibition of MAO-A (spectrofluorimetric method); type: biochemical; details: 10 μM compound
T5 construct: from tissue
T5 sequence (P21396 1-526): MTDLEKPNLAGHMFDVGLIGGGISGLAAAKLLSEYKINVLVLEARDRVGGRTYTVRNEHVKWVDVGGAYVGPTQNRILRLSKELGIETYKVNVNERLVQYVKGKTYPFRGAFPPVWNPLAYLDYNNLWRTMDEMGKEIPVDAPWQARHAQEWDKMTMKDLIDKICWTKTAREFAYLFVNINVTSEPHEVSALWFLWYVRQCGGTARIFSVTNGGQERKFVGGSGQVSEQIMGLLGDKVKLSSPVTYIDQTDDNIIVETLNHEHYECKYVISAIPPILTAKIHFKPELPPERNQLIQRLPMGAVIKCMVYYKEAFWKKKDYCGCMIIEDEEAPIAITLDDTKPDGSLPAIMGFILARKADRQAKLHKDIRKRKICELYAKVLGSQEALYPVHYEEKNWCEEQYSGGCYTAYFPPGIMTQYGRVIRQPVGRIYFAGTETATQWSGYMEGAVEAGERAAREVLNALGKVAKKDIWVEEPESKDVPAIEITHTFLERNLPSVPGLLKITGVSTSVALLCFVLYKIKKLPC
Source text: as §3, §4

[7] = Reducing activity of the stable radical DPPH; details: 100 μM compound, after 20 min
Description: 2.2.2.1 Determination of the reducing activity of the stable radical 1, 1-diphenyl-picrylhydrazyl (DPPH)
To a solution of DPPH (100μM) in absolute ethanol an equal volume of the compounds dissolved in ethanol was added. As control solution ethanol was used. The concentration of the solutions of the compounds was 100μM. After 20 and 60 min at room temperature the absorbance was recorded at 517 nm (Table 5). NDGA was used as a standard.
The compounds were studied for their antioxidant activity by the use of the stable 2,2-diphenyl-1-picrylhydrazyl radical (DPPH) at concentration 0.1mM after 20 min. […] This purple colour generally disappears in the presence of an antioxidant. The reduction of absorbance is a measure of the free DPPH due to the action of the antioxidant. The antioxidant activity was expressed as the RA% (Reducing Activity). […] Within the group of derivatives 4 the presence of the morpholinyl or piperidinyl rings at position A as well as the carbonyl group at position B, hinder the interaction of the compounds to the free stable radical DPPH.

[8] = Competition of the tested compounds with DMSO for hydroxyl radicals; details: 100 μM compound, Fe3+/ascorbic acid, 30 min, 37°C
Description: 2.2.2.2 Competition of the tested compounds with DMSO for hydroxyl radicals
The hydroxyl radicals generated by the Fe ^3+ /ascorbic acid system, were detected according to Nash, by the determination of formaldehyde produced from the oxidation of DMSO. The reaction mixture contained EDTA (0.1 mM), Fe ^3+ (167 μM), DMSO (33 mM) in phosphate buffer (50 mM, pH 7.4), the tested compounds (concentration 0.1mM) and ascorbic acid (10 mM). After 30 min of incubation (37°C) the reaction was stopped with CCl3COOH (17% w/v) (Table 5). Trolox was used as a standard.
Superoxide (O2^-.) anion and hydroxyl radical (^.OH) are free radical species of potential importance. In the acidic conditions of ischemic brain, O2^-. is probably protonated to give HO2^-. species. Iron released from damaged brain cells is more likely to be readily available to catalyze the generation of OH radicals. Among the ROS, the hydroxyl (^•OH) free radical is possibly the most toxic, as it reacts with a number of biological important molecules. Polyunsaturated fatty acids are found in high concentrations in the CNS, and are particularly vulnerable by free radicals. Thus, we tried to test the ability of our compounds to scavenge hydroxyl radicals. […] All the derivatives of series 13 (except of 13i) present high antioxidant activity (80-100%) which is not able to be correlated with any specific structural characteristic since all contain a coumarin, a purine and an isoxazolyl moiery. […] It seems that the overall molar configuration influences the response. However, antioxidants with hydrophilic or lipophilic character are both needed to act as radical scavengers in the aqueous phase or as chain-breaking antioxidants in biological membranes.

T3 sequence (P81908 whole entry): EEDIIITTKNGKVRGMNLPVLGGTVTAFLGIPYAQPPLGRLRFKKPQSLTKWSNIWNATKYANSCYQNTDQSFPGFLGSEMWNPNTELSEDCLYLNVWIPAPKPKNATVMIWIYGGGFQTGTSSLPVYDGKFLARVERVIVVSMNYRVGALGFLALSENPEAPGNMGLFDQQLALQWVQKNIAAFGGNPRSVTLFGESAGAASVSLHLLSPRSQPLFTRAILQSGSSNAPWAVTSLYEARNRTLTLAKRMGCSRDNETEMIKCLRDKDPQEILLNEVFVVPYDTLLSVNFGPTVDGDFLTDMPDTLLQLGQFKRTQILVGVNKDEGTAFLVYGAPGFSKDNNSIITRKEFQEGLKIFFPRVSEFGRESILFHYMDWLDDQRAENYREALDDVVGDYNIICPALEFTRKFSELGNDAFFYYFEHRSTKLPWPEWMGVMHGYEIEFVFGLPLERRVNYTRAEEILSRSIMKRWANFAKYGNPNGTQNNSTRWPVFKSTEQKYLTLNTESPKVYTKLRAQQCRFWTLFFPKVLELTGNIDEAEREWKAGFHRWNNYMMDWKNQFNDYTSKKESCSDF
T1 sequence (O42275 24-633): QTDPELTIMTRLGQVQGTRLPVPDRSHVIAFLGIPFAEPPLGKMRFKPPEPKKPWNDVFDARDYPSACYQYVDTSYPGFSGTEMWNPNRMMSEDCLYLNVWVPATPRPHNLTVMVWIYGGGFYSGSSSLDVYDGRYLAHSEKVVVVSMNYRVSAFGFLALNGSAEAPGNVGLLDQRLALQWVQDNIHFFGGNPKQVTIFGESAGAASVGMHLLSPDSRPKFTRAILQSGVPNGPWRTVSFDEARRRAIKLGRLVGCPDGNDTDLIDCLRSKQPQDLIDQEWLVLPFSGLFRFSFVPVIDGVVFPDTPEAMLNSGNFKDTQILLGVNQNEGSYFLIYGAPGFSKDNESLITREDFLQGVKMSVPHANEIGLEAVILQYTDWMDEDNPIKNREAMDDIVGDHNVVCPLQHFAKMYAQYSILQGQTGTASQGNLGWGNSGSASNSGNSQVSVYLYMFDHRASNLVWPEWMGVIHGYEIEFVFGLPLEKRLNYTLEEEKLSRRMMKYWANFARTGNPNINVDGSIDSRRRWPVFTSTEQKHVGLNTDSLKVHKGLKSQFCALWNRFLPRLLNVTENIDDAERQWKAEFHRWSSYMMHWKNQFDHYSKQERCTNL

SMILES | IC50 [1] [µM] | IC50 [2] [µM] | inhibition at 10 µM [3] [%] | MAO-B (%) @ 10μΜ [4] | LP % @ 100μΜ (inhibition of lipid peroxidation) [5] | MAO-A (%) @ 10μΜ [6] | inhibition at 100 µM ([2]; read-out: %LOX @ 100μΜ) [%] | RA% @ 100μΜ (reducing activity, DPPH) [7] | melting point [°C] | ∙ΟΗ % @ 100μΜ (hydroxyl radical scavenging, percent inhibition of formaldehyde production) ([8]; 100 µM) | %LOX @ 100μΜ ([2]; 100 μM compound) | ∙ΟΗ % @ 100μΜ (hydroxyl radical scavenging, percent inhibition of formaldehyde production) [8] [%]
Cc1cc(=O)oc2ccc(OCC3CC(Cn4cnc5c(N6CCOCC6)ncnc54)=NO3)cc12 (stereo not drawn) [4b] | 2.3 | 60 | 17 | 24% | no | no | – | – | – | – | – | –
Cc1cc(=O)oc2cc(OCCC3CC(Cn4cnc5c(N6CCOCC6)ncnc54)=NO3)ccc12 (stereo not drawn) [4i] | 7.7 | – | 15 | no | 54% | 25% | 2 | – | – | – | – | –
O=C(Oc1ccc2oc(=O)ccc2c1)C1CC(Cn2cnc3c(N4CCCCC4)ncnc32)=NO1 (stereo not drawn) [4n] | – | 35 | – | – | no | – | – | 17% | 175 to 177 | did not present any activity and no | – | –
O=C(Oc1ccc2oc(=O)ccc2c1)C1CC(Cn2cnc3c(N4CCOCC4)ncnc32)=NO1 (stereo not drawn) [4o] | – | 60 | – | – | 40% | – | – | 3% | 184 to 185 | did not present any activity and no | – | –
Cc1cc(=O)oc2cc(OCC3=NOC(Cn4cnc5c(N6CCCCC6)ncnc54)C3)ccc12 (stereo not drawn) [11d] | – | 48 | – | – | 43% | – | – | 13% | 144 to 145 | did not present any activity and no | – | –
Cc1cc(=O)oc2cc(OCC3=NOC(Cn4cnc5c(Cl)ncnc54)C3)ccc12 (stereo not drawn) [11e] | 7.8 | – | 8 | 9% | 63% | no | – | – | – | – | no | –
O=c1ccc2ccc(OCc3cc(Cn4cnc5c(N6CCOCC6)ncnc54)on3)cc2o1 [15b] | – | 100 | – | – | 52% | – | – | no | 185 to 187 | – | – | 48
O=c1ccc2ccc(OCC3=NOC(n4cnc5c(N6CCCCC6)ncnc54)C3)cc2o1 (stereo not drawn) [18a, 7-{[5-(6-piperidin-1-yl-9H-purin-9-yl)-4,5-dihydroisoxazol-3-yl]methoxy}-2H-chromen-2-one] | – | 90 | – | – | No | – | – | 4% | 197 to 199 | did not present any activity and no | – | –
O=c1ccc2ccc(OCC3=NOC(n4cnc5c(N6CCOCC6)ncnc54)C3)cc2o1 (stereo not drawn) [18b] | – | 100 | – | – | 38% | – | – | 1% | 205 to 206 | did not present any activity and no | – | –
